Compound `CCCOc1ccc(C(=O)O)cc1` displayed a log partition coefficient (logP) of 3.09.

With `CC(=O)Nc1cccc(C(=O)O)c1`, the logP was determined as 1.32. In the case of `O=C(O)c1ccc(Cl)c(Cl)c1` it was 3.25.

Regarding `NCc1ccc(C(=O)O)cc1`, the logP was 1.03.

The compound `CCCc1ccc(C(=O)O)cc1` registered a logP of 3.42. In the case of `CN(C)c1ccc(C(=O)O)cc1` it was 1.28; in that of `[N-]=[N+]=Nc1ccc(C(=O)O)cc1`, 2.54. In turn, `O=Cc1ccc(C(=O)O)cc1` yielded a logP of 1.76.

The compound `CCc1ccc(C(=O)O)cc1` gave a logP of 2.89.

With `O=C(O)c1cc(Cl)ccc1Cl`, the lipophilicity (logP) stood at 2.82.

The logP is a log measure of how a compound divides between an organic and an aqueous phase. High values mean a more lipophilic compound, low ones a more hydrophilic compound.
